Assay type in all cases: cell-based
The target of assay [1] is T1, GLP-1R (Homo sapiens, UniProt P43220). The assay can be described thus: HitHunter cAMP assay (GLP-1R). The conditions noted are these: cAMP; for Emax: read-out: (Emax) GLP-1R. An outline of the steps:
(§1)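 cAMP accumulation read by luminescent HitHunter immunocompetition after 30 min room-temperature agonist stimulation. Agonists tested as 22-point twofold dilutions, in duplicate, on 10,000 cells/well in HBSS containing 625 μM IBMX, 10 mM HEPES and 0.2% BSA.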
A general note: Changes in cAMP serve as a functional read-out for many G protein-coupled receptors.

The target of assay [2] is T2, GIP-R (Homo sapiens, UniProt P48546).
T2 sequence (P48546 22-466): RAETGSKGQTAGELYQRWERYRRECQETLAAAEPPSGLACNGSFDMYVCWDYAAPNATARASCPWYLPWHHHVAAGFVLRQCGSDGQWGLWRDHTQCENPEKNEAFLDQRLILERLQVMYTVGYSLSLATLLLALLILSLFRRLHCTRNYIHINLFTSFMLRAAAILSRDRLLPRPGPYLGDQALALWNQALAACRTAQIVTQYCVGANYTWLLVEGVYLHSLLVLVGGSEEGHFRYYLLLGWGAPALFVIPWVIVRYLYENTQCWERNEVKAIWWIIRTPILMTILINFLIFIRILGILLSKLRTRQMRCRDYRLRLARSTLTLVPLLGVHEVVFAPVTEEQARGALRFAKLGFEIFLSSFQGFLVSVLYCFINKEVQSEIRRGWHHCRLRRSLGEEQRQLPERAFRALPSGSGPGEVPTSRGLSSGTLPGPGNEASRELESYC
The assay can be described thus: HitHunter cAMP assay (GIP-R). The conditions noted are these: cAMP; for Emax: read-out: (Emax) GIP-R. In short, it runs like this: as §1

Assay [3] has as its target T1, GLP-1R. The assay can be described thus: PathHunter β-arrestin assay. In short, it runs like this: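 β-Arrestin recruitment measured by PathHunter enzyme-fragment luminescence, read after 3 h dark incubation at room temperature with detection solution. Beforehand, agonist in a 22-point 2-fold series was applied in duplicate for 90 min at 37 °C to 5,000 cells/well in BSA-containing (0.2%) medium.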

[4] abbreviates: Table 3, read-out: EC50 GLP-1R/nM.
The mark [5] stands for this setting: Table 3A, read-out: EC50 GLP-1R/nM.
Setting [6] is: Table 3, read-out: EC50 GIP-R/nM.
Setting [7] is: Table 3A, read-out: EC50 GIP-R/nM.
Where [8] appears, read: PathHunter β-arrestin assay, read-out: β-arrestin activity EC50.

The Emax is the size of the effect at its maximum, as opposed to the concentration needed. The term pEC50 denotes the negative decadic logarithm of the EC50, by convention in mol/L.

Structures are written as SMILES. pEC50: −log10 of the molar value. Read-outs that look alike come from different tables or passages of the source.

T1 sequence (P43220 24-463): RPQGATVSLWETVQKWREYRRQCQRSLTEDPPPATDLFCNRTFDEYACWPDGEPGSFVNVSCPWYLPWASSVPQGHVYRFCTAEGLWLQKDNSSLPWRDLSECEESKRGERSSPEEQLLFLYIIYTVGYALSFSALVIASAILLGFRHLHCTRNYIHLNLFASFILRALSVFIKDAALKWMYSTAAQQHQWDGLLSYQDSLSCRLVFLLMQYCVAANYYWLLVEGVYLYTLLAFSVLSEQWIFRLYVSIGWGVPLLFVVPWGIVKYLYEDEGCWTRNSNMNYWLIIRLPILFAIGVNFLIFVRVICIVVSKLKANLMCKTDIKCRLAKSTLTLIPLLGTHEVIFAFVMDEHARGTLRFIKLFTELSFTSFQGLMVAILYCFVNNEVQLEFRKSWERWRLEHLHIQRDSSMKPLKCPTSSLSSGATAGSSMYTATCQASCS

Take `CC[C@H](C)[C@H](NC(=O)[C@H](CO)NC(=O)[C@H](Cc1ccc(O)cc1)NC(=O)[C@H](CC(=O)O)NC(=O)[C@H](CO)NC(=O)[C@@H](NC(=O)[C@H](Cc1ccccc1)NC(=O)[C@@H](NC(=O)CNC(=O)[C@H](CCC(=O)O)NC(=O)C(C)(C)NC(=O)CCN1C(=O)CSC1=O)[C@@H](C)O)[C@@H](C)O)C(=O)N[C@@H](Cc1ccc(O)cc1)C(=O)N[C@@H](CC(C)C)C(=O)N[C@@H](CC(=O)O)C(=O)N[C@@H](CCCCN)C(=O)N[C@@H](CCC(N)=O)C(=O)N[C@@H](C)C(=O)N[C@@H](C)C(=O)NC(C)(C)C(=O)N[C@@H](CCC(=O)O)C(=O)N[C@@H](Cc1ccccc1)C(=O)N[C@H](C(=O)N[C@@H](CC(N)=O)C(=O)N[C@@H](Cc1c[nH]c2ccccc12)C(=O)N[C@@H](CC(C)C)C(=O)N[C@@H](CC(C)C)C(=O)N[C@@H](C)C(=O)NCC(=O)NCC(=O)N1CCC[C@H]1C(=O)N[C@@H](CO)C(=O)N[C@@H](CO)C(=O)NCC(=O)N[C@@H](C)C(=O)N1CCC[C@H]1C(=O)N1CCC[C@H]1C(=O)N1CCC[C@H]1C(=O)N[C@@H](CO)C(=O)N[C@@H](CCCCN)C(N)=O)C(C)C` [Compound 130]: the Emax in assay [1] (Table 3) turned out to be 114%; in assay [1] (Table 3A) it was 114%; in assay [2] (Table 3), 64%; in assay [2] (Table 3A), 64%. Further, the EC50 was in the range of 0.1 to 1 nM in assay [1] (setting [4]), 0.1 to 1 nM in assay [1] (setting [5]), 1 to 10 nM in assay [2] (setting [6]) and 1 to 10 nM in assay [2] (setting [7]). In addition, the pEC50 in assay [3] (setting [8]) is below 6.00.

Turning to `CC[C@H](C)[C@H](NC(=O)[C@H](CO)NC(=O)[C@H](Cc1ccc(O)cc1)NC(=O)[C@H](CC(=O)O)NC(=O)[C@H](CO)NC(=O)[C@@H](NC(=O)[C@H](Cc1ccccc1)NC(=O)[C@@H](NC(=O)CNC(=O)[C@H](CCC(=O)O)NC(=O)C(C)(C)C(=O)NCCN1C(=O)CSC1=O)[C@@H](C)O)[C@@H](C)O)C(=O)N[C@@H](Cc1ccc(O)cc1)C(=O)N[C@@H](CC(C)C)C(=O)N[C@@H](CC(=O)O)C(=O)N[C@@H](CCCCN)C(=O)N[C@@H](CCC(N)=O)C(=O)N[C@@H](C)C(=O)N[C@@H](C)C(=O)NC(C)(C)C(=O)N[C@@H](CCC(=O)O)C(=O)N[C@@H](Cc1ccccc1)C(=O)N[C@H](C(=O)N[C@@H](CC(N)=O)C(=O)N[C@@H](Cc1c[nH]c2ccccc12)C(=O)N[C@@H](CC(C)C)C(=O)N[C@@H](CC(C)C)C(=O)N[C@@H](C)C(=O)NCC(=O)NCC(=O)N1CCC[C@H]1C(=O)N[C@@H](CO)C(=O)N[C@@H](CO)C(=O)NCC(=O)N[C@@H](C)C(=O)N1CCC[C@H]1C(=O)N1CCC[C@H]1C(=O)N1CCC[C@H]1C(=O)N[C@@H](CO)C(=O)N[C@@H](CCCCN)C(N)=O)C(C)C` [Compound 153], the Emax in assay [1] (Table 3) is 107%; in assay [1] (Table 3A) it was 107%; in assay [2] (Table 3), 75 to 85%; in assay [2] (Table 3A), 75 to 85%. Moreover, the EC50 in assay [1] (setting [4]) was below 0.1 nM; in assay [1] (setting [5]), below 0.1 nM; in assay [2] (setting [6]), 10 to 100 nM; in assay [2] (setting [7]) it was 10 to 100 nM. Besides, in assay [3] (setting [8]), the pEC50 was 6.00 to 8.00.

Turning to `CC[C@H](C)[C@H](NC(=O)[C@H](CO)NC(=O)[C@H](Cc1ccc(O)cc1)NC(=O)[C@H](CC(=O)O)NC(=O)[C@H](CO)NC(=O)[C@@H](NC(=O)[C@H](Cc1ccccc1)NC(=O)[C@@H](NC(=O)CNC(=O)[C@H](CCC(=O)O)NC(=O)CCNC(=O)CCCN1C(=O)c2ccccc2C1=O)[C@@H](C)O)[C@@H](C)O)C(=O)N[C@@H](Cc1ccc(O)cc1)C(=O)N[C@@H](CC(C)C)C(=O)N[C@@H](CC(=O)O)C(=O)N[C@@H](CCCCN)C(=O)N[C@@H](CCC(N)=O)C(=O)N[C@@H](C)C(=O)N[C@@H](C)C(=O)NC(C)(C)C(=O)N[C@@H](CCC(=O)O)C(=O)N[C@@H](Cc1ccccc1)C(=O)N[C@H](C(=O)N[C@@H](CC(N)=O)C(=O)N[C@@H](Cc1c[nH]c2ccccc12)C(=O)N[C@@H](CC(C)C)C(=O)N[C@@H](CC(C)C)C(=O)N[C@@H](C)C(=O)NCC(=O)NCC(=O)N1CCC[C@H]1C(=O)N[C@@H](CO)C(=O)N[C@@H](CO)C(=O)NCC(=O)N[C@@H](C)C(=O)N1CCC[C@H]1C(=O)N1CCC[C@H]1C(=O)N1CCC[C@H]1C(=O)N[C@@H](CO)C(=O)N[C@@H](CCCCN)C(N)=O)C(C)C` [Compound 146], the Emax in assay [1] (Table 3) was in the range of 86 to 92%; in assay [1] (Table 3A), 86 to 92%; in assay [2] (Table 3) it was 83 to 97%; in assay [2] (Table 3A) it was 83 to 97%. Moreover, the EC50 in assay [1] (setting [4]) was in the range of 1 to 10 nM; in assay [1] (setting [5]), 1 to 10 nM; in assay [2] (setting [6]), 10 to 100 nM; in assay [2] (setting [7]), 1 to 10 nM. The pEC50 in assay [3] (setting [8]) was below 6.00.

Regarding `CC[C@H](C)[C@H](NC(=O)[C@H](CO)NC(=O)[C@H](Cc1ccc(O)cc1)NC(=O)[C@H](CC(=O)O)NC(=O)[C@H](CO)NC(=O)[C@@H](NC(=O)[C@H](Cc1ccccc1)NC(=O)[C@@H](NC(=O)CNC(=O)[C@H](CCC(=O)O)NC(=O)CSCC(=O)NCCn1c(C)cc(C)nc1=O)[C@@H](C)O)[C@@H](C)O)C(=O)N[C@@H](Cc1ccc(O)cc1)C(=O)N[C@@H](CC(C)C)C(=O)N[C@@H](CC(=O)O)C(=O)N[C@@H](CCCCN)C(=O)N[C@@H](CCC(N)=O)C(=O)N[C@@H](C)C(=O)N[C@@H](C)C(=O)NC(C)(C)C(=O)N[C@@H](CCC(=O)O)C(=O)N[C@@H](Cc1ccccc1)C(=O)N[C@H](C(=O)N[C@@H](CC(N)=O)C(=O)N[C@@H](Cc1c[nH]c2ccccc12)C(=O)N[C@@H](CC(C)C)C(=O)N[C@@H](CC(C)C)C(=O)N[C@@H](C)C(=O)NCC(=O)NCC(=O)N1CCC[C@H]1C(=O)N[C@@H](CO)C(=O)N[C@@H](CO)C(=O)NCC(=O)N[C@@H](C)C(=O)N1CCC[C@H]1C(=O)N1CCC[C@H]1C(=O)N1CCC[C@H]1C(=O)N[C@@H](CO)C(=O)N[C@@H](CCCCN)C(N)=O)C(C)C` [Compound 137], the EC50 in assay [1] (EC50 GLP-1R/nM, Table 3) fell in the range of 1 to 10 nM; in assay [1] (EC50 GLP-1R/nM, Table 3A) it was 1 to 10 nM; in assay [2] (EC50 GIP-R/nM, Table 3), 10 to 100 nM. For the same compound, the Emax in assay [1] (Table 3) came out at 103%; in assay [1] (Table 3A), 103%; in assay [2] (Table 3) it was 8%. In assay [3], the negative-log EC50 (pEC50) is below 6.00.

As to `CCCCCCCCCCCCCCCC(=O)N[C@@H](CCC(=O)NCCCC[C@H](NC(=O)[C@H](CO)NC(=O)[C@@H]1CCCN1C(=O)[C@@H]1CCCN1C(=O)[C@@H]1CCCN1C(=O)[C@H](C)NC(=O)CNC(=O)[C@H](CO)NC(=O)[C@H](CO)NC(=O)[C@@H]1CCCN1C(=O)CNC(=O)CNC(=O)[C@H](C)NC(=O)[C@H](CC(C)C)NC(=O)[C@H](CC(C)C)NC(=O)[C@H](Cc1c[nH]c2ccccc12)NC(=O)[C@H](CC(N)=O)NC(=O)[C@@H](NC(=O)[C@H](Cc1ccccc1)NC(=O)[C@H](CCC(=O)O)NC(=O)C(C)(C)NC(=O)[C@H](C)NC(=O)[C@H](C)NC(=O)[C@H](CCC(N)=O)NC(=O)[C@H](CCCCN)NC(=O)[C@H](CC(=O)O)NC(=O)[C@H](CC(C)C)NC(=O)[C@H](Cc1ccc(O)cc1)NC(=O)[C@@H](NC(=O)[C@H](CO)NC(=O)[C@H](Cc1ccc(O)cc1)NC(=O)[C@H](CC(=O)O)NC(=O)[C@H](CO)NC(=O)[C@@H](NC(=O)[C@H](Cc1ccccc1)NC(=O)[C@@H](NC(=O)CNC(=O)[C@H](CCC(=O)O)NC(=O)C(C)(C)CNC(=O)CCN1CCCCC1=O)[C@@H](C)O)[C@@H](C)O)[C@@H](C)CC)C(C)C)C(N)=O)C(=O)O` [Compound 4], the Emax in assay [1] (Table 3) amounted to 100%; in assay [1] (Table 3A) it was 100%; in assay [2] (Table 3) it was 23%; in assay [2] (Table 3A), 23%. Moreover, the EC50 in assay [1] (setting [4]) was 0.1 to 1 nM; in assay [1] (setting [5]), below 0.1 nM; in assay [2] (setting [6]), 1 to 10 nM; in assay [2] (setting [7]), 10 to 100 nM. Besides, in assay [3] (setting [8]), the pEC50 was 6.00 to 8.00.

For the origin of these results see patent publication US20260176320A1, “MODULATORS OF G-PROTEIN COUPLED RECEPTORS” (priority 2018, published 2026).
